Measurements published in US8828724B2, “Method for preparing cells for engraftment” (Institut National de la Sante et de la Recherche Medicale …, priority 2007, dated 2014).
Peptide text beside a SMILES is read from it.

What was measured:
BM-MNC [1] = assay: BM-MNC adhesion onto gelatin/vitronectin or fibrin gels for 30 min after pre-treatment; assay type: cell-based, mouse; conditions: 2 h pre-treatment
Method: Tibias, femurs and humerus of C57BL/6 male mice were carefully dissected, bone marrow was extracted and dissociated, and bone marrow mononuclear cells (BM-MNC) were separated by differential centrifugation on Ficoll gradients (Histopaque-1083, Sigma), (2,000 r.p.m, 25 min). BM-MNC were then washed with PBS and pelleted (2,000 r.p.m, 10 min).
(§1) To evaluate the effects of TSP1 or peptides derived from its carboxyterminal sequence, 4N1-1 and 4N1-2, on cell adhesion onto gelatin/vitronectin, fibrin gels or activated SVEC monolayers, 2.10^6/ml BM-MNC or PBMC, or 10^6/ml HUCB-EPC were pretreated for 2 h at 37° C. in an incubator with 5% CO2, in the presence of TSP1 ([…]), or the 4N1-1 or 4N1-2 peptides (100 μM), or control BSA (1%), or with mouse monoclonal anti-human CD47 IgG1 B6H12 (40 μg/ml), or matched control isotype mouse IgG1 (40 μg/ml), before PBS washes and culture for the specified length of time. For adhesion experiments, supernatants were removed, adherent cells were gently washed with PBS. The number of adherent cells per high power field was counted in 3 to 5 fields per well using an inverted phase-contrast microscope at high magnification (×400).
(§2) Mouse BM-MNC and HUCB-EPC adhesion was evaluated in vitro. The effects of purified or recombinant platelet proteins, or peptide agonists of the CD47/IAP receptor was characterized. Two main approaches were used: • 1. Pre-incubation of the cells with platelet proteins for 2 h before measuring their adhesion on gelatin/vitronectin control matrix or fibrin gels for 30 min. • 2. Cell adhesion on gelatin/vitronectin control matrix or fibrin gels for 16 h in the presence of platelet proteins in solution.

BM-MNC [2] = assay: Apoptosis evaluation via observation of nuclear morphology; assay type: cell-based, mouse; conditions: 100 μM, pre-treated or continued presence, 5 days of culture, FIG. 13
Method: BM-MNC were grown onto gelatin/vitronectin matrix for 5 days in EBM in the continued presence of TSP1 or the 4N1-1 and 4N1-2 peptides, or treated for the last 24 h only. […] Non adherent cells were eliminated and adherent cells fixed with PBS-PFA 4% followed by addition of DAPI (Di-aminidophenylindol, 0.01 mg/ml) that becomes fluorescent after integration between DNA bases. […] Experiments were repeated at least three times.
After observing increased BM-MNC adhesion following treatment with peptide 4N1-1, the inventors examined the extent of apoptosis triggered by peptide 4N1-1.

HUCB-EPC = HUCB-EPC adhesion onto gelatin/vitronectin or fibrin gels for 15 min after pre-treatment; assay type: cell-based, Human; conditions: 2 h pre-treatment, 15 min adhesion, FIG. 8
Method: Human umbilical cord blood (30-50 ml) was collected in sterile tubes containing heparin (15 UI/ml, Sanofi) following standard protocols in agreement with Hôpital Lariboisiére and Inserm ethical guidelines. PBMC were isolated via Ficoll gradient centrifugation (Histopaque-1077, Dominique Dutscher). To eliminate mature endothelial cells, mononuclear cells were seeded (6.10^6 cells/ml) in culture dishes (100×20 mm) at 37° C. with 5% CO2 for 16 h. Adherent cells were eliminated. Non-adherent cells were cultured and differentiated into Human umbilical cord blood-derived endothelial progenitor cells (HUCB-EPC) in 6-well plates (10^7 cells/well) on collagen type 1 matrix (Coll1; 90 μg/ml, Sigma) in M199 growth medium (Gibco) complete with L-glutamine, HEPES buffer (25 mM; Eurobio), antibiotics and antimycotics (penicillin 10000 units/ml, streptomycin 10,000 μg/ml, fongizone 25 μg/ml) and 20% FCS (Dominique Dutscher), as well as 10 ng/ml VEGF (R&D Systems).
as §1

BM-MNC [3] = assay: BM-MNC adhesion onto interleukin-1β-pre-activated murine endothelial monolayers; assay type: cell-based, mouse; conditions: 2 h pre-treatment; TSP1 10 μg/ml, 4N1-1 100 μM; 30 min adhesion, FIG. 9
Method: SV40-transformed mouse lymph node endothelial cells (SVEC from ATCC), were grown in Dulbecco's Modified Eagle Medium (DMEM) supplemented with 20% FCS in 24 well plaques until they reached full confluency (7 days). SVEC monolayers were activated with 5 nM murine interleukin-1β (Calbiochem) for 2 h prior to cell-cell adhesion experiments.
as §1
BM-MNC were pre-treated for 2 h with recombinant or purified human TSP1 (10 μg/ml), or with peptide 4N1-1 (100 μM), and measured their adhesion after 30 min onto interleukin-1β-pre-activated murine endothelial monolayers. […]

BM-MNC [4] = assay: Endothelial differentiation of BM-MNC (Dil-Ac-LDL / BS1-lectin double labelling); assay type: cell-based, mouse; conditions: 2 h pre-treatment, 5 days culture, FIG. 12
Method: BM-MNC were cultured onto gelatin/vitronectin in EBM medium for 5 days. After eliminating non adherent cells, EPC were identified through double-labelling for two endothelial characteristics: incorporation of Dil-labelled acetylated low density lipoproteins (Dil-Ac-LDL; 1 μg/ml, BioHarbor Products; red fluorescence) and binding of FITC-labelled BS1-lectin (1 μg/ml, Sigma; green fluorescence). Double fluorescence allowed the microscopic identification and counting of EPC in 3 to 5 fields per well (400× magnification). Experiments were repeated at least three times, and results expressed as percentages of EPC.
Following the previous observation that TSP1 and peptide 4N1-1 stimulate BM-MNC adhesion in vitro, the inventors measured the endothelial differentiation of treated BM-MNC. BM-MNC were cultured for 5 days, following a 2 h pre-treatment with recombinant or purified TSP1, or with peptides 4N1-1, 4N1-2, or CSVTCG (a peptide derived from the TSP1 sequence). EPC-differentiated BM-MNC were identified by fluorescence microscopy after double-labelling for Dil-Ac-LDL incorporation and BS1 lectin binding.

[5] = systemic injection of significant doses; cited from earlier work
BM-MNC [6] = assay: BM-MNC adhesion onto gelatin/vitronectin for 16 h with proteins in solution; assay type: cell-based, mouse; conditions: 16 h in presence of 100 μg/ml, FIG. 3
Method: as §2
BM-MNC were incubated for 16 h on gelatin/vitronectin matrix in the presence of PPP, recombinant TSP1 (100 μg/ml), or peptide 4N1-1 (100 μM) before adhesion was quantified through direct cell counts by phase-contrast microscopy. As reported in FIG. 3, TSP1 stimulated adhesion by over three fold compared to the gelatin/vitronectin control (+206.8%, p<0.05).

BM-MNC [7] = assay: Apoptosis evaluation via quantification of intact DNA content; assay type: cell-based; conditions: 50 μM for 10 or 120 min, culture up to 24 hours, FIG. 29
Method: BM-MNC were isolated and treated with 4N1-1 peptide for 10 or 120 min, washed with PBS and cultured in EBM onto gelatin/vitronectin matrix for up to 24 hours. Untreated fresh cells served as control for live cells. […] After treatment and culture, non adherent and adherent cells were harvested and analyzed separately, fixed with ice-cold ethanol 70% in PBS, and incubated for 45 min in PBS containing Triton X-100 (0.05%), propidium iodide (PI; 50 μg/ml) and RNase-A (100 μg/ml). PI becomes fluorescent after integration between DNA bases. […] Experiments were repeated three times.
The inventors examined the extent of apoptosis in BM-MNC treated with peptide 4N1-1 and 4N1-2, using a second method. BM-MNC were pre-treated with 4N1-1 or 4N1-2 (50 μM) for 10 or 120 min, and cultured in full EBM2 medium, with serum and growth factors for up to 24 hours, to allow potential apoptotic reactions to proceed (FIG. 29). […] After culture, adherent and non-adherent cells were harvested and analyzed separately.

[8] = 30 min adhesion, gelatin/vitronectin, FIG. 26
[9] = BM-MNC, 30 min adhesion, FIG. 1

## FIRGGMYEGKK (7NGG) [mutated 7N3, reference compound]
BM-MNC [1]; [8]
  modulation of BM-MNC adhesion compared with BSA: no significant modulation

## CSCC[C@H](NC(=O)[C@@H](NC(=O)[C@@H](NC(=O)[C@H](Cc1ccc(O)cc1)NC(=O)[C@H](Cc1ccccc1)NC(=O)[C@@H](N)CCCNC(=N)N)C(C)C)C(C)C)C(=O)N[C@@H](Cc1c[nH]c2ccccc12)C(=O)N[C@@H](CCCCN)C(=O)O [4N1-1]
BM-MNC [2]
  apoptosis compared to BSA: did not stimulate apoptosis significantly

## purified TSP1: Human purified Thrombospondin-1 prepared at Inserm Unit U553
BM-MNC [1]; 30 min adhesion, FIG. 7
  stimulation of BM-MNC adhesion onto gelatin/vitronectin compared with BSA: +143.8%
HUCB-EPC
  stimulation of HUCB-EPC adhesion onto fibrin compared with BSA: +33.3%
  stimulation of HUCB-EPC adhesion onto gelatin-vitronectin compared with BSA: +52.5%
BM-MNC [3]
  stimulation of adhesion onto endothelial monolayers compared with BSA: +40.5%
BM-MNC [4]
  stimulation of endothelial differentiation vs BSA: +28.9%

## KRFYVVMWKK (4N1K peptide)
[5]
  gross coagulation parameters: does not modulate gross coagulation parameters
  lethality: not lethal

## recombinant TSP1: Human recombinant Thrombospondin-1 produced by EMP-Genetech
BM-MNC [1]; 30 min adhesion, FIG. 2
  concentration at which maximal stimulation of adhesion was reached: 20 µg/mL
  concentration from which adhesion onto gelatin/vitronectin was stimulated significantly: ≥ 5 µg/mL
BM-MNC [1]; 30 min adhesion, FIG. 7
  stimulation of BM-MNC adhesion onto gelatin/vitronectin compared with BSA: +65.6%
BM-MNC [1]; at 20 μg/ml, FIG. 2
  maximal stimulation of adhesion onto gelatin/vitronectin compared with BSA: +179.3%
BM-MNC [6]
  stimulation of adhesion compared to the gelatin/vitronectin control: +206.8%
HUCB-EPC
  stimulation of HUCB-EPC adhesion onto fibrin compared with BSA: +37.6%
  stimulation of HUCB-EPC adhesion onto gelatin-vitronectin compared with BSA: +106.3%
BM-MNC [3]
  stimulation of adhesion onto endothelial monolayers compared with BSA: +34.2%
BM-MNC [4]
  stimulation of endothelial differentiation vs BSA: +28.0%

## CSCC[C@H](NC(=O)[C@@H](NC(=O)[C@@H](NC(=O)[C@H](Cc1ccc(O)cc1)NC(=O)[C@H](Cc1ccccc1)NC(=O)[C@@H](N)CCCNC(=N)N)C(C)C)C(C)C)C(=O)O [4N1-2, RFYVVM, reference compound] (H-RFYVVM-OH)
BM-MNC [2]
  apoptosis compared to BSA: did not stimulate apoptosis significantly
BM-MNC [7]
  apoptosis compared to staurosporine or control, adherent and non-adherent cells: did not stimulate apoptosis significantly

## CSVTCG (TSP-1 fragment) [reference compound]
BM-MNC [1]; 30 min adhesion, gelatin/vitronectin, FIG. 7
  inhibition of adhesion compared with BSA: 21%

## TSP1: recombinant or purified Thrombospondin-1, not specified which at b144
BM-MNC [1]; [9]
  stimulation of adhesion on fibrin compared with BSA: +74.0%
  stimulation of adhesion onto gelatin/vitronectin compared with BSA: +160.6%

## RFYGGMWK (4NGG) [mutated 4N1-1, reference compound]
BM-MNC [1]; [8]
  modulation of BM-MNC adhesion compared with BSA: no significant modulation

## leptin: recombinant human leptin (Biovision)
BM-MNC [1]; SDF1 100 ng/ml, EphB2-Fc 3 μg/ml, EBM2 50%, leptin 100 ng/ml, gelatin/vitronectin 30 min, FIG. 27
  modulation of BM-MNC adhesion compared with BSA: moderate increase

## FIRVVMYEGKK (7N3 peptide)
BM-MNC [1]; [8]
  modulation of BM-MNC adhesion compared with BSA: stimulated BM-MNC adhesion significantly
